We go through 3 molecules from US11046716B2, “Beta-lactamase inhibitors” (priority 2015, dated 2021).

Assay [1] deals with T1, SHV-5 (Klebsiella pneumoniae, UniProt P0A3M1).
T1 construct: made in house; host or cells: E. coli BL21(DE3)
Description: β-lactamase enzyme inhibition assay, SHV-5 (cefotaxime substrate). Format: biochemical. Summed up: (§1)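 IC50 is the inhibitor level cutting initial substrate hydrolysis rate by 50% relative to no-inhibitor controls, after 15 min enzyme–inhibitor preincubation at 37 °C. KPC-2 read with imipenem at 300 nm, SHV-5 with cefotaxime at 260 nm; enzymes were untagged, E. coli-expressed, chromatographically purified.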

Assay [2] addresses T2, KPC-2 (Klebsiella pneumoniae, UniProt Q9F663).
T2 construct: made in house; host or cells: E. coli BL21(DE3)
Description: β-lactamase enzyme inhibition assay, KPC-2 (imipenem substrate). Format: biochemical. Particulars: Class A; imipenem substrate, 300 nm; read-out: KPC-2. Summed up:
as §1

The target in assay [3] is T3, VIM-2 (Escherichia coli, UniProt Q5U7L7).
T3 construct: made in house; host or cells: E. coli BL21(DE3)
Kind of assay: β-lactamase enzyme inhibition assay, VIM-2 (nitrocefin substrate). Format: biochemical. Particulars: Class B; nitrocefin substrate, 486 nm; read-out: VIM-2. Summed up:
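Metallo-β-lactamase VIM-2 activity was tracked spectrophotometrically at 486 nm with 100 μM nitrocefin over 10 min, following 15 min preincubation with compound at 37 °C; inhibition was calculated per concentration.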

Assay [4] addresses T4, AmpC (Enterobacter cloacae, UniProt P05364).
T4 construct: made in house; host or cells: E. coli BL21(DE3)
Description: β-lactamase enzyme inhibition assay, p99 AmpC (nitrocefin substrate). The assay is classed as biochemical. Summed up:
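IC50 is the inhibitor level cutting initial substrate hydrolysis rate by 50% relative to no-inhibitor controls, after 15 min enzyme–inhibitor preincubation at 37 °C. enzymes were untagged, E. coli-expressed, chromatographically purified.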

Assay [5] concerns the target OXA-48 (UniProt Q6XEC0). Description: β-lactamase enzyme inhibition assay, Class D oxacillinase. The assay is classed as biochemical. Particulars: read-out: OXA-48.
For assay [6], the system named is E. coli expressing the Class A Extended Spectrum Beta-Lactamase (ESBL) CTX-M-15. Kind of assay: Broth microdilution MIC assay with ceftazidime, E. coli CTX-M-15. The assay is classed as cell-based. The conditions noted are these: Fixed CAZ (ceftazidime) 4 μg/mL; E. coli ESBL4 CTX-M-15. Summed up:
(§2)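 In cation-adjusted Mueller Hinton broth, bacteria pre-grown 3-5 hours were exposed to test compound (2-fold, 16–0.125 μg/mL) plus a static 4 μg/ml β-lactam. A panel of control β-lactams was run alongside, and the compound MIC was judged by eye following 16-20 hours at 37° C.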
For orientation: Dilution methods test growth across graded concentrations, often in twofold steps.

In assay [7] the test system is E. cloacae expressing the Class C P99. Kind of assay: Broth microdilution MIC assay with ceftazidime, E. cloacae P99. The assay is classed as cell-based. The conditions noted are these: Fixed CAZ (ceftazidime) 4 μg/mL; E. cl. 144200 p99 AmpC. From the text: To determine the ability of test compounds to potentiate the inhibition of the growth of bacterial strains that produce beta-lactamase enzymes in the presence of a β-lactam antibiotic, classic cell based broth microdilution MIC assays were employed. Six bacteria strains producing beta-lactamase enzymes were used: E. coli expressing the Class A Extended Spectrum Beta-Lactamase (ESBL) CTX-M-15, E. cloacae expressing the Class C P99, K. pneumoniae expressing the Class A carbapenemase KPC-2, P. aeruginosa expressing the Class B carbapenemase VIM-2, K. pneumoniae expressing the class A carbapenemase KPC-2 and the class B carbapenemase VIM-4, and K. pneumoniae producing the Class D carbapenemase OXA-48. The assay was conducted in Cation Adjusted Mueller Hinton Broth (CAMHB, BD #212322, BD Diagnostic Systems, Sparks, Md.). Bacteria strains were grown for 3-5 hours in CAMBH broth. Test compounds (Examples 1-94) were added to a microtiter plate in 2-fold serial dilutions in CAMHB in a final concentration range of 16 μg/mL to 0.125 μg/ml. An overlay of CAMHB containing a Beta-lactam was added to the compounds at a final static concentration of 4 μg/ml. […] In addition to the titration of test compounds the MICs of a panel of control beta-lactams is also tested to ensure the strains are behaving consistently from test to test. Once the test compound and antibiotics are added the plates can be inoculated according to CLSI broth microdilution method. After inoculation the plates are incubated for 16-20 hours at 37° C. then the Minimal Inhibitory Concentration (MIC) of the test compound is determined visually.
Using the methodology described above, examples of the current invention were evaluated for their ability to inhibit the growth of β-lactamase-producing bacteria in the presence of a β-lactam antibiotic.

Assay [8] has as its system K. pneumoniae expressing the Class A carbapenemase KPC-2. Kind of assay: Broth microdilution MIC assay with meropenem, K. pneumoniae KPC-2. Format: cell-based. Particulars: Fixed Mero (meropenem) 4 μg/mL; K. p. 156319 KPC-3. Summed up:
as §2

The subject of assay [9] is P. aeruginosa expressing the Class B carbapenemase VIM-2. Kind of assay: Broth microdilution MIC assay with meropenem, P. aeruginosa VIM-2. Particulars: Fixed Mero (meropenem) 4 μg/mL; P. aerug. 2775 VIM-2. The assay is classed as cell-based. Summed up:
as §2

Assay [10] has as its system K. pneumoniae expressing the class A carbapenemase KPC-2 and the class B carbapenemase VIM-4. Kind of assay: Broth microdilution MIC assay with meropenem, K. pneumoniae KPC-2 and VIM-4. The assay is classed as cell-based. Particulars: Fixed Mero (meropenem) 4 μg/mL; K. p. A-1797 KPC-2 VIM-4. Summed up:
as §2

Assay [11] has as its system K. pneumoniae producing the Class D carbapenemase OXA-48. Kind of assay: Broth microdilution MIC assay with meropenem, K. pneumoniae OXA-48. Format: cell-based. The conditions noted are these: Fixed Mero (meropenem) 4 μg/mL; K. p. 11978 OXA-48. The method in brief:
as §2

pIC50: −log10 of the molar value.

T2 sequence (Q9F663 25-293, looked up): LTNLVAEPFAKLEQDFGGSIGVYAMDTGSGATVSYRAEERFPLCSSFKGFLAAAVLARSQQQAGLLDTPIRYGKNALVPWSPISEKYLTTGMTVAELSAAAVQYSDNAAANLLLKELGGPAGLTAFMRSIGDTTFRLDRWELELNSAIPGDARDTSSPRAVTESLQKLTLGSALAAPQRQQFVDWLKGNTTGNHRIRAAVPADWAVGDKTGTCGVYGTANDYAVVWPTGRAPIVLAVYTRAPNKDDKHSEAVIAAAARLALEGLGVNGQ
T4 sequence (P05364 21-381): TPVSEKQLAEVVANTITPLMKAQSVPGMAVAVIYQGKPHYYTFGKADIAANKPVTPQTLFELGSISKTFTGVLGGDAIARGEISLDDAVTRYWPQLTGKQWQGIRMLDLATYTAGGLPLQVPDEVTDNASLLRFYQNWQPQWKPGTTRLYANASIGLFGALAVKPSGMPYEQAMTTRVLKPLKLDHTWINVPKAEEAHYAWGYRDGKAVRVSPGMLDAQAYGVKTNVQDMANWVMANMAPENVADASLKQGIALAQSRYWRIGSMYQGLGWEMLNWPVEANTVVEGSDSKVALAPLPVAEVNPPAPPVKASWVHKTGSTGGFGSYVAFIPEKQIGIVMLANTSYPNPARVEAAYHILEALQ
T1 sequence (P0A3M1 22-286): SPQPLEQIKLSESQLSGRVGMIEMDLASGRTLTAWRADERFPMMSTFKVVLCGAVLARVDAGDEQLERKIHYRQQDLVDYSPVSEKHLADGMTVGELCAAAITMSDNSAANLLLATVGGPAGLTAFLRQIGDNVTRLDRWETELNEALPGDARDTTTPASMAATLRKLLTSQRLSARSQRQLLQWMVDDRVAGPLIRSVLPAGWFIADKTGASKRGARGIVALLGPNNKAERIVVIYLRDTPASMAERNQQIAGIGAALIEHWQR

As for `O=C(Cc1nnnn1CC1CCNCC1)N[C@H]1Cc2cccc(C(=O)O)c2OB1O` [Example 98, (R)-2-hydroxy-3-(2-(1-(piperidin-4-ylmethyl)-1H-tetrazol-5-yl)acetamido)-3,4-dihydro-2H-benzo[e][1,2]oxaborinine-8-carboxylic acid], the pIC50 is above 7.00 in assay [1]; above 7.00 in assay [2]; above 7.00 in [3]; above 7.00 in [4]; 6.00 to 7.00 in [5]. Moreover, in assay [6], the “MIC (μg/mL) of Exemplary Compounds in presence of fixed β-lactams: E. coli ESBL4 CTX-M-15” value (shortened to “MIC (μg/mL) … E. coli ESBL4 CTX-M-15”) was “C (C represents an MIC of <1 μg/mL)”. Further, the “MIC (μg/mL) of Exemplary Compounds in presence of fixed β-lactams: E. cl. 144200 p99 AmpC” value (“MIC (μg/mL) … E. cl. 144200 p99 AmpC” below) in assay [7] was “C (C represents an MIC of <1 μg/mL)”. Also, the “MIC (μg/mL) of Exemplary Compounds in presence of fixed β-lactams: K. p. 156319 KPC-3” value (from here on “MIC (μg/mL) … K. p. 156319 KPC-3”) in assay [8] is listed as “C (C represents an MIC of <1 μg/mL)”. In assay [9], the “MIC (μg/mL) of Exemplary Compounds in presence of fixed β-lactams: P. aerug. 2775 VIM-2” value (shortened to “MIC (μg/mL) … P. aerug. 2775 VIM-2”) is “C (C represents an MIC of <1 μg/mL)”. For the same molecule, the “MIC (μg/mL) of Exemplary Compounds in presence of fixed β-lactams: K. p. A-1797 KPC-2 VIM-4” value (from here on “MIC (μg/mL) … K. p. A-1797 KPC-2 VIM-4”) in assay [10] is “B (B represents an MIC between 1 and 16 μg/mL inclusive)”. In addition, the “MIC (μg/mL) of Exemplary Compounds in presence of fixed β-lactams: K. p. 11978 OXA-48” value (“MIC (μg/mL) … K. p. 11978 OXA-48” for short) in assay [11] is “B (B represents an MIC between 1 and 16 μg/mL inclusive)”.
`Nc1nnc(CC(=O)N[C@H]2Cc3cccc(C(=O)O)c3OB2O)[nH]1` [Example 20, (R)-3-(2-(5-amino-4H-1,2,4-triazol-3-yl)acetamido)-2-hydroxy-3,4-dihydro-2H-benzo[e][1,2]oxaborinine-8-carboxylic acid]: the pIC50 in assay [1] was above 7.00; in [2], above 7.00; in [3], 6.00 to 7.00; in [4], 6.00 to 7.00; in assay [5], 6.00 to 7.00. The “MIC (μg/mL) … E. coli ESBL4 CTX-M-15” value in [6] is “C (C represents an MIC of <1 μg/mL)”. For the same molecule, in assay [7], the “MIC (μg/mL) … E. cl. 144200 p99 AmpC” value is given as “C (C represents an MIC of <1 μg/mL)”. The “MIC (μg/mL) … K. p. 156319 KPC-3” value in assay [8] is “B (B represents an MIC between 1 and 16 μg/mL inclusive)”. In addition, the “MIC (μg/mL) … P. aerug. 2775 VIM-2” value in [9] was “B (B represents an MIC between 1 and 16 μg/mL inclusive)”. Further, the “MIC (μg/mL) … K. p. A-1797 KPC-2 VIM-4” value in assay [10] was “B (B represents an MIC between 1 and 16 μg/mL inclusive)”. Also, the “MIC (μg/mL) … K. p. 11978 OXA-48” value in assay [11] was “B (B represents an MIC between 1 and 16 μg/mL inclusive)”.
Consider `NCc1cc(-c2cn(CC(=O)N[C@H]3Cc4cccc(C(=O)O)c4OB3O)nn2)cs1` [Example 55, (R)-3-(2-(4-(5-(aminomethyl)thiophen-3-yl)-1H-1,2,3-triazol-1-yl)acetamido)-2-hydroxy-3,4-dihydro-2H-benzo[e][1,2]oxaborinine-8-carboxylic acid], for which the pIC50 in assay [1] is above 7.00; in assay [2], above 7.00; in [3], 6.00 to 7.00; in assay [4] it was above 7.00; in [5], 6.00 to 7.00. Besides, the “MIC (μg/mL) … E. coli ESBL4 CTX-M-15” value in assay [6] is reported as “C (C represents an MIC of <1 μg/mL)”. Besides, in assay [7], the “MIC (μg/mL) … E. cl. 144200 p99 AmpC” value is “C (C represents an MIC of <1 μg/mL)”. Besides, the “MIC (μg/mL) … K. p. 156319 KPC-3” value in assay [8] is given as “C (C represents an MIC of <1 μg/mL)”. In addition, the “MIC (μg/mL) … P. aerug. 2775 VIM-2” value in [9] was “B (B represents an MIC between 1 and 16 μg/mL inclusive)”. In addition, the “MIC (μg/mL) … K. p. A-1797 KPC-2 VIM-4” value in assay [10] was “B (B represents an MIC between 1 and 16 μg/mL inclusive)”. Also, in assay [11], the “MIC (μg/mL) … K. p. 11978 OXA-48” value is “B (B represents an MIC between 1 and 16 μg/mL inclusive)”.
